# Source: US6258839A, “Isolation of naturally occuring isoflavanone and some clinical uses thereof” (priority 1997, dated 2001)
# pEC50, pIC50: −log10 of the molar value.
# Legend:
# HIV-11118 = experiment: in vitro anti-HIV activity, HIV-11118; type: cell-based, HIV-1
# HIV-1 AZT^res = experiment: in vitro anti-HIV activity, AZT resistant HIV-1; type: cell-based; conditions: Human immunodeficiency virus 1
# SIV MAC = experiment: in vitro antiviral activity, SIV; type: cell-based
# [1] = system: HIV in fresh human peripheral blood mononuclear cells (PBMC's); experiment: in vitro anti-HIV activity in fresh human PBMC's; type: cell-based, HIV-1; conditions: Human immunodeficiency virus 1, PBMC
# CALO/V901, P225S = experiment: microbe, parasite or virus in culture; type: cell-based, HIV-1; conditions: Human immunodeficiency virus 1
# DPS/Y181C = experiment: activity against HIV mutants: DPS/Y181C; type: cell-based, HIV-1
# HEPT/P236L = experiment: activity against HIV mutants: HEPT/P236L; type: cell-based, HIV-1; conditions: Human immunodeficiency virus 1
# TiBO/A98G, V1081 = experiment: activity against HIV mutants: TiBO/A98G, V1081; type: cell-based, HIV-1; conditions: Human immunodeficiency virus 1
# HIV-2 = experiment: activity against HIV-2; type: cell-based
# integrase = integrase (Human immunodeficiency virus type 1 group M subtype B, UniProt P04585); experiment: integrase enzymatic activity; type: biochemical, HIV
# [2] = system: HIV-1 attachment to cells (CEM-SS, PBMC's); experiment: virus attachment assay, p24 based; type: cell-based
# HIV [3] = experiment: combination studies with AZT; type: cell-based
# solubility studies = type: physicochemical
# Experimental: It is very soluble in propylene glycol (PG), polyethylene glycol (PEG) 400 and soybean oil. These solvents may be useful in formulating cosolvents suitable for pharmaceutical applications. The ethanolic solutions has UV absorptions in the 290-300 nm range, useful for analytical work. Aqueous solutions for analytical work were prepared in HPCD and diluted with water to the required concentrations. The stock solutions were stable when incubated for 48 hours at 37° C. and when stored at room temperature.
# BSA = BSA (Bos taurus, UniProt P02769); experiment: interaction with BSA by fluorescence spectroscopy; type: binding, bovine; conditions: PMZ-1 in the μM range
# Sequence of BSA (P02769 25-607): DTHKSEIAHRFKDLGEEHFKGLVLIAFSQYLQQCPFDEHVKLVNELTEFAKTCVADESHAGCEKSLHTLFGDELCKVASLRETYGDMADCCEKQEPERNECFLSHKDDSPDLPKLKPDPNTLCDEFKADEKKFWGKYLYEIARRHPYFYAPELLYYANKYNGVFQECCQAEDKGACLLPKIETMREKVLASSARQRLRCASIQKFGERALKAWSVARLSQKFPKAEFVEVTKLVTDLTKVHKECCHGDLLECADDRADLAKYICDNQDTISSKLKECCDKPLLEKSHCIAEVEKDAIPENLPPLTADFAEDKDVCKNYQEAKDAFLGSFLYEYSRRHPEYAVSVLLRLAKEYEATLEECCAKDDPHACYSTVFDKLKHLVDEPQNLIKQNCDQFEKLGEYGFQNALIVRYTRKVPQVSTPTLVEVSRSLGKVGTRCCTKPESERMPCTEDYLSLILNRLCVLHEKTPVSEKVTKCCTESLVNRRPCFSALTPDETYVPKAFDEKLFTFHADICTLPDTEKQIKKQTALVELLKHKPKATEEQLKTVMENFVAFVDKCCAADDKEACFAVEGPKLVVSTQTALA
# hollow fibre studies = type: in vivo; conditions: intraperitoneally; preliminary
# breast cancer = experiment: NCI 60 cell line panel, breast cancer; type: cell-based
# [4] = system: mutant viruses containing reverse transcriptase domain at codons 181, 139 and 100; experiment: activity against three other mutant viruses; type: cell-based, HIV
# [5] = U1/TNF differential latent infection, XTT and p24; conditions: human, u1 cells
# U1 latent infection = experiment: U1/TNF differential latent infection, XTT and p24
# CEM-SS = experiment: growth inhibition of uninfected host cells in anti-HIV screen; conditions: Homo sapiens
# HIV [6] = experiment: HIV activity of co-isolated compounds; type: cell-based
# [7] = system: HIV-1 infected cells (p24 production); experiment: extended time course assay, p24 and XTT; conditions: addition to culture after infection
structure (smiles),measurement,setting,value
COc1c(O)cc(C2COc3cc(O)cc(O)c3C2=O)cc1CC=C(C)C (racemic) [PMZ-1],pEC50,"HIV-11118; Human immunodeficiency virus 1, HIV-1IIIB, NCI AIDS anti-viral screen",6.70
same,pEC50,"HIV-11118; Human immunodeficiency virus 1, HIV-11118",7.24
same,pEC50,HIV-1 AZT^res,6.80
same,activity against SIV,SIV MAC,weak activity
same,pEC50,[1]; PMBC's,6.22
same,pEC50,[1]; fresh human PBMC's,> 6.00
same,pEC50,"CALO/V901, P225S",7.00
same,pEC50,"DPS/Y181C; Human immunodeficiency virus 1, DPS/Y181C",5.86
same,pEC50,"DPS/Y181C; Human immunodeficiency virus 1, mutant Y181",~6.00
same,pEC50,HEPT/P236L,< 5.30
same,pEC50,"TiBO/A98G, V1081",< 5.30
same,activity against HIV-2,HIV-2,weak activity
same,pIC50,integrase,4.40
same,effect on attachment of virons to cells,[2],no effect
same,HIV-1 Attachment to CEM-SS cells,"[2]; at 100 μM, CEM-SS cells",No inhibition
same,anti-viral combination effect with AZT,HIV [3],anti-viral synergistic effects
same,solubility in 40% HPCD,solubility studies; 40% hydroxypropyl beta-cyclodextrin,soluble
same,solubility in ethanol,solubility studies; ethanol,> 1000 µg/mL
same,"solubility in PG, PEG 400 and soybean oil","solubility studies; propylene glycol, polyethylene glycol 400, soybean oil",very soluble
same,solubility in water,solubility studies; water,poorly soluble
same,quenching of fluorescence of BSA,BSA,concentration dependent quenching
same,activity in hollow fibre studies,hollow fibre studies,active
same,activity against breast cancer,breast cancer,good activity
same,activity against three other mutant viruses,[4],some activity
same,MNTC,[5],1000 nM
same,U1/TNF differential latent infection XTT: toxic concentration,U1 latent infection; XTT,≤ 3.16 µM
same,U1/TNF differential latent infection p24 production,U1 latent infection; p24,no inhibition of p24 production
same,pIC50,CEM-SS,4.42
same,pIC50,"CEM-SS; cell growth, HIV-1 AZT^res test",4.38
same,pIC50,"CEM-SS; cell growth, HIV-1 AZT^sen test",4.46
same,pIC50,"CEM-SS; cell growth, HIV-1 DPS test",4.38
same,pIC50,"CEM-SS; cell growth, HIV-1 N119 test",4.22
same,pIC50,"CEM-SS; cell growth, HIV-1RF test",4.70
same,pIC50,"CEM-SS; cell growth, HIV-1 ROD test",4.55
same,pIC50,"CEM-SS; cell growth, HIV-11118 test",4.34
same,pIC50,"CEM-SS; cell growth, SIV MAC test",4.46
CC(C)=CCc1c(O)cc(O)c2c1OC(c1ccc(O)c(O)c1)CC2=O (stereo not drawn) [4382-39-1],HIV activity,HIV [6],devoid of HIV activity
CC(C)=CCc1cc(C2COc3cc(O)cc(O)c3C2=O)cc(O)c1O (stereo not drawn) [4382-39-2],HIV activity,HIV [6],devoid of HIV activity
"Cc1ccnc2c1NC(=O)c1cccnc1N2C1CC1 [nevirapine, reference compound]",time after infection within which addition is effective,[7],≤ 8 h
